ChEMBL document CHEMBL1146815, “Novel dual inhibitors of calpain and lipid peroxidation” (Bioorg Med Chem Lett, 2004)

Tests used:
[1] = system: C6; assay: Protection against C6 glial cell death induced by maitotoxin; format: functional, cell-based; settings: Rattus norvegicus
[2] = target: T1, Calpain-1 catalytic subunit (Homo sapiens, UniProt P07384); assay: Inhibitory activity against on human calpain 1
T1 sequence (P07384 whole entry): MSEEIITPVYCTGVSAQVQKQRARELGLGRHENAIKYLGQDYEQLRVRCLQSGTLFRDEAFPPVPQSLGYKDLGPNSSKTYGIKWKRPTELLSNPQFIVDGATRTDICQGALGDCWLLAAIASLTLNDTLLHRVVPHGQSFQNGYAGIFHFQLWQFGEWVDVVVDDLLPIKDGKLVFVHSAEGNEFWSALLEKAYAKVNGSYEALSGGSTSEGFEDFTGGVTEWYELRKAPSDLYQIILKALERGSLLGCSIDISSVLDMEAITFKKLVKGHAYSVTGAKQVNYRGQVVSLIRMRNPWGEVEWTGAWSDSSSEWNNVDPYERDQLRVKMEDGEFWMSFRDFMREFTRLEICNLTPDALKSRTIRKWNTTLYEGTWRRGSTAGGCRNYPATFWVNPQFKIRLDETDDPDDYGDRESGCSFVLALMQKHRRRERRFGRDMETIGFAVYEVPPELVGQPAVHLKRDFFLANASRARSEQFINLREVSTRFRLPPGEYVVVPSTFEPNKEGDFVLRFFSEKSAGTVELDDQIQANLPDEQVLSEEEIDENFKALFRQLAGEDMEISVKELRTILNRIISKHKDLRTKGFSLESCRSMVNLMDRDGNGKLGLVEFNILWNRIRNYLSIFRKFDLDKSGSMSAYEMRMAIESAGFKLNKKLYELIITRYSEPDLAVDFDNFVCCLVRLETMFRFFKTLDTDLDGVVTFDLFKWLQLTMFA

[3] = species on record: Rattus norvegicus; assay: Ability to inhibit [Fe2+] induced lipid peroxidation (LPO) in rat brain microsomes; format: functional
[4] = target: T1, Calpain-1 catalytic subunit; assay: Inhibitory activity against on human calpain 1; Not active
[5] = target: T1, Calpain-1 catalytic subunit; assay: Inhibitory activity against on calpain in C6 glial cells; Not active; format: functional, cell-based, Rattus norvegicus
[6] = system: C6; assay: Protection against C6 glial cell death induced by maitotoxin at 100 uM concentration; format: functional; settings: Rattus norvegicus

IC50 [2] [nM]	Structure (SMILES)	IC50 [1] [nM]	IC50 [3] [nM]	IC50 [4]	IC50 [5]	inhibition at 100 µM [6] [%]
	CC(=O)OC1OCC[C@@H]1NC(=O)[C@H](CC(C)C)NC(=O)c1ccc2c(c1)Nc1ccccc1S2 (some centres not stated)	15500				
147	Cc1c(C)c2c(c(C)c1O)CCC(C)(C(=O)N[C@@H](CC(C)C)C(=O)N[C@H]1CCOC1O)O2 (some centres not stated)		1700			
82	CC(C)C[C@H](NC(=O)c1cccc2c1Nc1ccccc1S2)C(=O)N[C@H]1CCOC1O (some centres not stated)		3600			
	Cc1cc(C(C)(C)C)c(O)c(C(C)(C)C)c1 [BUTYLATED HYDROXYTOLUENE]		3250	Not Active	Not Active	21

Structure (SMILES)	IC50 [2] [nM]	IC50 [1] [nM]	IC50 [3] [nM]	IC50 [4]	IC50 [5]	inhibition at 100 µM [6] [%]
CC(C)C[C@H](NC(=O)c1ccc2c(c1)Nc1ccccc1S2)C(=O)N[C@H]1CCOC1O (some centres not stated)	22.5	38500	70			
